According to the OligoGym collection:
Oligonucleotides are given in HELM: sugar(base)linkage, 5' to 3'; d 2'-deoxyribose, r ribose, m 2'-O-methylribose, p phosphate. ss, as = sense and antisense strand

What follows are substances tested against UBE2K (assay: reporter assay of Huesken 2005). Conditions: siRNA.
Note: test concentration or dose not given here.

Substance	normalised inhibition (eCFP-eYFP dual reporter)
RNA1{r(A)p.r(U)p.r(C)p.r(A)p.r(A)p.r(U)p.r(G)p.r(G)p.r(G)p.r(C)p.r(A)p.r(G)p.r(C)p.r(U)p.r(G)p.r(C)p.r(A)p.r(A)p.r(U)p.d(T)p.d(T)}|RNA2{r(A)p.r(U)p.r(U)p.r(G)p.r(C)p.r(A)p.r(G)p.r(C)p.r(U)p.r(G)p.r(C)p.r(C)p.r(C)p.r(A)p.r(U)p.r(U)p.r(G)p.r(A)p.r(U)p.d(C)p.d(T)}$$$RNA1{StrandType:ss}|RNA2{StrandType:as}$	48.4%
RNA1{r(A)p.r(U)p.r(C)p.r(C)p.r(U)p.r(A)p.r(A)p.r(U)p.r(A)p.r(U)p.r(U)p.r(A)p.r(G)p.r(U)p.r(U)p.r(C)p.r(C)p.r(G)p.r(U)p.d(T)p.d(T)}|RNA2{r(A)p.r(C)p.r(G)p.r(G)p.r(A)p.r(A)p.r(C)p.r(U)p.r(A)p.r(A)p.r(U)p.r(A)p.r(U)p.r(U)p.r(A)p.r(G)p.r(G)p.r(A)p.r(U)p.d(G)p.d(C)}$$$RNA1{StrandType:ss}|RNA2{StrandType:as}$	53.2%
RNA1{r(A)p.r(U)p.r(C)p.r(U)p.r(U)p.r(G)p.r(U)p.r(A)p.r(G)p.r(A)p.r(U)p.r(G)p.r(A)p.r(G)p.r(A)p.r(A)p.r(U)p.r(U)p.r(U)p.d(T)p.d(T)}|RNA2{r(A)p.r(A)p.r(A)p.r(U)p.r(U)p.r(C)p.r(U)p.r(C)p.r(A)p.r(U)p.r(C)p.r(U)p.r(A)p.r(C)p.r(A)p.r(A)p.r(G)p.r(A)p.r(U)p.d(C)p.d(T)}$$$RNA1{StrandType:ss}|RNA2{StrandType:as}$	81.3%
RNA1{r(A)p.r(U)p.r(G)p.r(A)p.r(C)p.r(U)p.r(C)p.r(U)p.r(C)p.r(C)p.r(G)p.r(C)p.r(A)p.r(C)p.r(G)p.r(G)p.r(U)p.r(A)p.r(U)p.d(T)p.d(T)}|RNA2{r(A)p.r(U)p.r(A)p.r(C)p.r(C)p.r(G)p.r(U)p.r(G)p.r(C)p.r(G)p.r(G)p.r(A)p.r(G)p.r(A)p.r(G)p.r(U)p.r(C)p.r(A)p.r(U)p.d(T)p.d(G)}$$$RNA1{StrandType:ss}|RNA2{StrandType:as}$	85.7%
RNA1{r(A)p.r(U)p.r(G)p.r(U)p.r(U)p.r(C)p.r(A)p.r(A)p.r(A)p.r(C)p.r(A)p.r(G)p.r(A)p.r(C)p.r(A)p.r(G)p.r(C)p.r(U)p.r(C)p.d(T)p.d(T)}|RNA2{r(G)p.r(A)p.r(G)p.r(C)p.r(U)p.r(G)p.r(U)p.r(C)p.r(U)p.r(G)p.r(U)p.r(U)p.r(U)p.r(G)p.r(A)p.r(A)p.r(C)p.r(A)p.r(U)p.d(T)p.d(T)}$$$RNA1{StrandType:ss}|RNA2{StrandType:as}$	64.6%
RNA1{r(A)p.r(U)p.r(U)p.r(A)p.r(A)p.r(A)p.r(G)p.r(U)p.r(A)p.r(G)p.r(A)p.r(U)p.r(C)p.r(U)p.r(U)p.r(G)p.r(U)p.r(A)p.r(G)p.d(T)p.d(T)}|RNA2{r(C)p.r(U)p.r(A)p.r(C)p.r(A)p.r(A)p.r(G)p.r(A)p.r(U)p.r(C)p.r(U)p.r(A)p.r(C)p.r(U)p.r(U)p.r(U)p.r(A)p.r(A)p.r(U)p.d(T)p.d(T)}$$$RNA1{StrandType:ss}|RNA2{StrandType:as}$	45.8%
RNA1{r(A)p.r(U)p.r(U)p.r(G)p.r(G)p.r(C)p.r(A)p.r(G)p.r(C)p.r(U)p.r(G)p.r(C)p.r(A)p.r(G)p.r(A)p.r(G)p.r(C)p.r(C)p.r(A)p.d(T)p.d(T)}|RNA2{r(U)p.r(G)p.r(G)p.r(C)p.r(U)p.r(C)p.r(U)p.r(G)p.r(C)p.r(A)p.r(G)p.r(C)p.r(U)p.r(G)p.r(C)p.r(C)p.r(A)p.r(A)p.r(U)p.d(A)p.d(G)}$$$RNA1{StrandType:ss}|RNA2{StrandType:as}$	85%
RNA1{r(A)p.r(U)p.r(U)p.r(G)p.r(U)p.r(C)p.r(A)p.r(U)p.r(U)p.r(G)p.r(C)p.r(A)p.r(A)p.r(G)p.r(C)p.r(A)p.r(C)p.r(U)p.r(A)p.d(T)p.d(T)}|RNA2{r(U)p.r(A)p.r(G)p.r(U)p.r(G)p.r(C)p.r(U)p.r(U)p.r(G)p.r(C)p.r(A)p.r(A)p.r(U)p.r(G)p.r(A)p.r(C)p.r(A)p.r(A)p.r(U)p.d(A)p.d(A)}$$$RNA1{StrandType:ss}|RNA2{StrandType:as}$	85.4%
